Test results: patent US10767187B2 (The State of Israel, Ministry of Agriculture & Rural …, priority 2016, dated 2020)

What was measured:
MdPh-4′-OGT [1] = molecular target: T1, MdPh-4′-OGT (Malus domestica, UniProt A7MAS5); assay: Substrate specificity, sugar donor and cation dependence of purified recombinant MdPh-4′-OGT; format: biochemical, Malus x domestica; conditions: 50 μM substrate, 2 mM UDP-glucose, 500 ng enzyme, 1 hour, pH 7.5; LC-MS
T1 construct: made in house; host or cells: E. coli BL21 (DE3)
T1 sequence (A7MAS5 1-481): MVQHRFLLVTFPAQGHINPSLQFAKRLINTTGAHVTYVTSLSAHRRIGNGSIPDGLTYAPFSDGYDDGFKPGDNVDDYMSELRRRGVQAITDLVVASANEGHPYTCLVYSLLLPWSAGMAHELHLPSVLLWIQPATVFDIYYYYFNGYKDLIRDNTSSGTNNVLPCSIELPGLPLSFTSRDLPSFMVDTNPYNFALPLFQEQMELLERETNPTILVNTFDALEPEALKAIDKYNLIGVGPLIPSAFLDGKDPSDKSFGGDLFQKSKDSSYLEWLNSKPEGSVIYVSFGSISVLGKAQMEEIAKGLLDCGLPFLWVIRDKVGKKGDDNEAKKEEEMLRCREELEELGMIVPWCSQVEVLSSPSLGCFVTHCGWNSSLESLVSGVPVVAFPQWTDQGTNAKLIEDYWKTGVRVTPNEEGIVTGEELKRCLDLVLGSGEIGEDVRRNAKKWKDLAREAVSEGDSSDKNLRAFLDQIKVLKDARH
Method: Substrates analyzed are indicated.
(§1) Reactions were performed at 30° C. for 60 minutes and terminated by addition of 10 μL of 10% TCA (v/v). Two microliters of the reaction products were used for analysis and identification by LC-UV-MS. All assay series were carried out at least in triplicate.
The analytical column was a Zorbax Extend-C18 Rapid Resolution HT column (2.1×50.0 mm, 1.8 μm, Agilent Technologies, Waldbronn, Germany). The gradient elution mobile phase consisted of H2O with 0.1% (v/v) formic acid (eluent A) and acetonitrile containing 0.1% (v/v) formic acid (eluent B). The column was equilibrated with 10% B for 1.5 minutes. […] The flow rate of the mobile phase was 0.3 ml/min and the column oven temperature was 40° C. Eluting compounds were subjected to a dual-sprayer orthogonal ESI source, with one sprayer for analytical flow and one for the reference compound (Agilent Technologies, Santa Clara, USA). The ESI source was operated in negative mode with the following settings: gas temp of 300° C. with a flow of 8 L/min and nebulizer set to 35 psig. VCap set to 3000 V, the fragmentor to −140 V and the skimmer to 65 V. Scan mode of the mass detector was applied (100-1700 m/z) with a rate of 1 spectra/sec. The [M-H] ions of target compounds were detected using the ‘find compound by formula’ function and analyzed by Masshunter qualitative and quantitative analysis software version B.07.00 (Agilent technologies). Compounds were identified by comparison of exact mass and retention time to purchased standards.

MdPGT1 = MdPGT1 (Malus domestica, UniProt B3TKC8); conditions: Jugde et al. (2008)
MdPh-4′-OGT [2] = molecular target: T1, MdPh-4′-OGT; assay: Kinetic parameters of His-tag purified recombinant MdPh-4′-OGT (standard glucosyltransferase enzyme assay, LC-MS); format: biochemical, Malus x domestica
Method: as §1
The UPLC-MS analysis was carried out on an Agilent 1290 Infinity series liquid chromatograph coupled with an Agilent 1290 Infinity DAD and Agilent 6224 Accurate Mass Time of Flight mass spectrometer (MS) (Agilent Technologies, Santa Clara, USA). The analytical column was a Zorbax Extend-C18 Rapid Resolution HT column (2.1×50.0 mm, 1.8 μm, Agilent Technologies, Waldbronn, Germany). The gradient elution mobile phase consisted of H2O with 0.1% (v/v) formic acid (eluent A) and acetonitrile containing 0.1% (v/v) formic acid (eluent B). The column was equilibrated with 10% B for 1.5 minutes. Eluent B was then increased to 95% till 12 minutes, and restored to 10% by 15 minutes. The flow rate of the mobile phase was 0.3 ml/min and the column oven temperature was 40° C. Eluting compounds were subjected to a dual-sprayer orthogonal ESI source, with one sprayer for analytical flow and one for the reference compound (Agilent Technologies, Santa Clara, USA). The ESI source was operated in negative mode with the following settings: gas temp of 300° C. with a flow of 8 L/min and nebulizer set to 35 psig. VCap set to 3000 V, the fragmentor to −140 V and the skimmer to 65 V. Scan mode of the mass detector was applied (100-1700 m/z) with a rate of 1 spectra/sec. The [M-H] ions of target compounds were detected using the ‘find compound by formula’ function and analyzed by Masshunter qualitative and quantitative analysis software version B.07.00 (Agilent technologies). Compounds were identified by comparison of exact mass and retention time to purchased standards.

Malus Ph-2′-OGT = assay: Km for phloretin of Malus Ph-2′-OGT (literature) compared with MdPh-4′-OGT; format: biochemical; conditions: Gosch C. et al. (2010)
MdPh-4′-OGT [3] = molecular target: T1, MdPh-4′-OGT; assay: pH and temperature optima of MdPh-4′-OGT activity with phloretin and UDP-glucose; format: biochemical, Malus x domestica
Method: as §1
All data included represent an average of at least three independent experiments. Determination of the pH optima within the range of 4.0-10.0 by mixing the stock buffer of 0.5 M citric acid and 1 M dibasic sodium phosphate solutions (for pH 4.0-7.0) and Tris-HCl (for pH 8.0-10.0), and the temperature optima within the range of 20° C.-45° C.

## O=C(O)/C=C/c1ccc(O)cc1 [4-coumaric acid]
MdPh-4′-OGT [1]
  Activity / product formation with the compound as acceptor substrate: no products were detected

## O=C(CCc1ccc(O)cc1)c1c(O)cc(O)cc1O [Phloretin, 3-(4-hydroxyphenyl)-1-(2,4,6-trihydroxyphenyl)-1-propanone]
MdPGT1
  Km for phloretin, times lower than with MdPh-4′-OGT: 41 times
MdPh-4′-OGT [2]; named substrate varied, co-substrate fixed
  kcat: 9.94 ± 1.23 s^−1 (×10^−2)
MdPh-4′-OGT [2]; named substrate varied, co-substrate fixed, 500 ng enzyme
  Vmax: 1.86 ± 0.30 pkat μg^−1 protein
MdPh-4′-OGT [2]; named substrate varied, co-substrate fixed, 500 ng enzyme, listed as phloretin
  Vmax: 1.86±0.30 pkat μg^−1 protein
MdPh-4′-OGT [2]; named substrate varied: phloretin 0.5-500 μM at 2 mM UDP-glucose, UDP-glucose 0.01-50 mM at 30 μM phloretin, 500 ng enzyme
  Km: 26.1 ± 6.97 µM
MdPh-4′-OGT [1]
  Activity / product formation with the compound as acceptor substrate: highest activity
Malus Ph-2′-OGT
  Km for phloretin, times higher than with MdPh-4′-OGT: 3 times

## O=C(/C=C/c1ccc(O)c(O)c1)c1ccc(O)cc1O [butein]
MdPh-4′-OGT [1]
  Activity / product formation with the compound as acceptor substrate: production of the corresponding O-glucoside

## O=C(O)/C=C/c1ccc(O)c(O)c1 [caffeic acid]
MdPh-4′-OGT [1]
  Activity / product formation with the compound as acceptor substrate: no products were detected

## O=C1C[C@@H](c2ccc(O)cc2)Oc2cc(O)cc(O)c21 [naringenin]
MdPh-4′-OGT [1]
  Activity / product formation with the compound as acceptor substrate: formation of the corresponding naringenin-7-O-glucoside

## O=c1c(O)c(-c2ccc(O)c(O)c2)oc2cc(O)cc(O)c12 [quercetin]
MdPh-4′-OGT [1]
  Activity / product formation with the compound as acceptor substrate: production of three different products

## O=C(CCc1ccc(O)cc1)c1c(O)cc(O[C@@H]2O[C@H](CO)[C@@H](O)[C@H](O)[C@H]2O)cc1O [trilobatin, 1-Propanone, 1-(4-(beta-D-glucopyranosyloxy)-2,6-dihydroxyphenyl)-3-(4-hydroxyphenyl)]
MdPh-4′-OGT [1]
  Activity / product formation with the compound as acceptor substrate: production of the corresponding di-O-glucosides

B1: MdPh-4′-OGT: His-tagged recombinant apple glycosyltransferase that glycosylates phloretin with UDP-glucose to form trilobatin (protein, listed as Malus domestica)
chain: T1 sequence (A7MAS5 1-481)
modifications: His tag
notes: His-tagged recombinant apple glycosyltransferase that glycosylates phloretin with UDP-glucose to form trilobatin
MdPh-4′-OGT [3]; calculated from temperature dependence
  Activation energy: 4.369 kcal/mol
MdPh-4′-OGT [3]; pH 6.0
  Activity remaining at pH 6.0: 17%
MdPh-4′-OGT [3]; pH 10.0
  Activity remaining at pH 10.0: less than 5%
MdPh-4′-OGT [3]; pH range 4.0-10.0 tested
  pH of maximum activity: 9.0 pH
  pH range of significant activity: 7.0-9.0 pH
